Assay results published in PMC11279807, “Modulation of the Antimelanoma Activity Imparted to Artemisinin Hybrids by the Monoterpene Counterpart” (Molecules, 2024).
Where two headings read alike, the source gives them in different places.

How the values were obtained:
C3PV = experiment: MTT cell viability assay on normal fibroblasts C3PV; format: cell-based, human; details: 24 h treatment, triplicates, read-out: IC50 (µM ± SD) C3PV
Procedure: (§1) The primary human healthy fibroblast C3PV cell line was grown in a culture medium containing 50% Dulbecco Modified Medium (DMEM) and 50% Ham’s F10 supplemented with 10% Fetal Bovine Serum (FBS). […] To all growing media were added 1% Pen/Strep and 1% Glutamine.
To study the effect of artemisinin derivatives on cell viability, MTT assay was performed. Briefly, C3PV, WM115, and WM266 cell lines were seeded in 96-well plates (3000 cells/well in 100 μL of medium) 24 h before treatment and incubated overnight to allow for cell adherence. […] The analyses of cell viability were performed at the end of the treatment. Triplicates were made in all experiments. After 24 h of treatment with newly synthesized compounds, the culture medium was replaced with a solution containing 0.5 mg/mL of MTT. After 3 h of incubation in an incubator, the medium was removed, and a lysis solution (10% SDS, 0.6% acetic acid in DMSO) was added to dissolve the formazan crystals. Optical density measurements were performed with a microplate reader EPOCH/2 (Biotek) with 630 nm (background) and a 570 nm filters.
(§2) The IC50 values were determined via non-linear regression, using the GraphPad Prism software package version 8 (GraphPad Software, San Diego, CA, USA). Results were expressed as means of IC50 values ± SD. The TSI values were calculated using the following formula: […]

WM115 = experiment: MTT cell viability assay on primary melanoma cell line WM115; format: cell-based, human; details: for IC50: primary melanoma WM115, MTT, 24 h treatment, triplicates, read-out: IC50 (µM ± SD) WM115; for TSI WM115: tumor selectivity index = IC50 on C3PV / IC50 on WM115
Procedure: as §1
(§3) To study the effect of artemisinin derivatives on cell viability, MTT assay was performed. Briefly, C3PV, WM115, and WM266 cell lines were seeded in 96-well plates (3000 cells/well in 100 μL of medium) 24 h before treatment and incubated overnight to allow for cell adherence. Afterward, the medium was replaced with a fresh one containing the appropriate dose of newly synthesized compounds (doses ranging from 0.01 to 1 μM were used for 24 h). The analyses of cell viability were performed at the end of the treatment. Triplicates were made in all experiments. After 24 h of treatment with newly synthesized compounds, the culture medium was replaced with a solution containing 0.5 mg/mL of MTT. After 3 h of incubation in an incubator, the medium was removed, and a lysis solution (10% SDS, 0.6% acetic acid in DMSO) was added to dissolve the formazan crystals. Optical density measurements were performed with a microplate reader EPOCH/2 (Biotek) with 630 nm (background) and a 570 nm filters.
as §2

WM266 [1] = experiment: MTT cell viability assay on metastatic melanoma cell line WM266; format: cell-based, human; details: for TSI WM266: tumor selectivity index = IC50 on C3PV / IC50 on WM266
Procedure: as §1, §3, §2

WM266 [2] = experiment: Cell viability assay in the presence or absence of DFO on WM266; format: cell-based; details: Homo sapiens, treatment time 48 h
From the text: To obtain information about the mode of action of compounds 9c, 9f, 10b, and 10f, we repeated the cell viability assays on the metastatic cancer line WM266 in the presence of the Fe^2+ chelating agent deferoxamine (DFO). As mentioned above, Fe^2+ ions trigger endoperoxide bridge opening of the sesquiterpene counterpart by Fenton-like mechanisms, leading to the formation of carbon- and oxygen-centered radicals. Usually, this in cell formation of single-electron reactive species seems to be responsible for the biological activity of ART and its semisynthetic and hybrid derivatives. Sequestration of Fe^2 by DFO generally reduces the efficacy of the compounds studied.
DFO was used to study the mode of action of compounds 9c, 9f, 10b, and 10f on WM266 cell line. Twenty-four hours before treatment, cells were seeded in 96-well plates and incubated overnight. Then, cells were pre-treated with 20 μM of DFO for 1 h. After this time, two washes with PBS were performed, and, subsequently, fresh medium containing different doses of the opportune compound was added for 48h. The analyses of cell viability were performed at the end of treatment, and triplicates were made in all experiments.

[3] = Stability by NMR analyses after heating; format: physicochemical; details: after heating at 45 and 100 °C for 8 and 2 h, respectively
Procedure: Based on cellular results, hybrids 9c, 9f, 10b, and 10f were selected for further studies. Their stability was evaluated by NMR analyses after heating them at 45 and 100 °C for 8 and 2 h, respectively (Supplementary Materials S1).

[4] = Homo sapiens, WM266, 24 h, metastatic melanoma WM266, MTT, 24 h treatment, triplicates, read-out: IC50 (µM ± SD) WM266
[5] = metastatic melanoma WM266, MTT, 24 h treatment, triplicates, read-out: IC50 (µM ± SD) WM266

SMILES | IC50 (WM115; Homo sapiens, WM-115, 24 h) | IC50 (WM266 [1]; [4]) | IC50 (C3PV; Homo sapiens, C3PV, 24 h) | TSI WM115 (WM115) | TSI WM266 (WM266 [1]) | also measured
C[C@H]1[C@H](OC(=O)CCC(=O)O)O[C@@H]2O[C@@]3(C)CC[C@H]4[C@H](C)CC[C@@H]1[C@@]24OO3 [ARTA 3, artesunic acid, reference compound] | 1.5 ± 0.01 µM | 1.3 ± 0.2 µM | 1.7 ± 0.44 µM | 1.1 | 1.3 | –
C[C@H]1[C@@H](O)O[C@@H]2O[C@@]3(C)CC[C@H]4[C@H](C)CC[C@@H]1[C@@]24OO3 [DHA 2, dihydroartemisinin, reference compound] | 1.6 ± 0.4 µM | 1.6 ± 0.03 µM | 0.7 ± 0.19 µM | 0.4 | 0.4 | –
C=CCc1ccc(O)c(OC)c1 [Eugenol 4, eugenol, reference compound] | – | – | – | 0.3 | 1.1 | IC50 (C3PV; Homo sapiens): 1 ± 0.1 µM; IC50 (WM115; Homo sapiens, WM-115): 3 ± 0.02 µM; IC50 (WM266 [1]; Homo sapiens, metastatic melanoma WM266, MTT, 24 h treatment, triplicates, read-out: IC50 (µM ± SD) WM266): 0.9 ± 0.05 µM
C=CCc1ccc(O[C@H]2O[C@@H]3O[C@@]4(C)CC[C@H]5[C@H](C)CC[C@@H]([C@H]2C)[C@@]35OO4)c(OC)c1 [Hybrid 9a] | 0.1 ± 0.01 µM | 1 ± 0.09 µM | 0.7 ± 0.04 µM | 7.0 | 0.7 | –
CC(C)=CCCC(C)CCO[C@H]1O[C@@H]2O[C@@]3(C)CC[C@H]4[C@H](C)CC[C@@H]([C@H]1C)[C@@]24OO3 (some centres unmarked) [Hybrid 9c] | 2.1 ± 0.3 µM | 1.4 ± 0.56 µM | 364 ± 7.9 µM | 173.4 | 260.1 | IC50 (WM266 [1]; Homo sapiens, WM266, reference hybrid on WM266, as printed in Table 2, read-out: IC50 ± SD R.H.): 1.4 ± 0.56 µM; IC50 (WM266 [2]; WM266, pre-treated with 20 μM DFO for 1 h, read-out: IC50 ± SD WM266 with DFO): 12.7 ± 0.3 µM; IC50 (WM266 [2]; WM266, without DFO, read-out: IC50 ± SD WM266 without DFO): 1.4 ± 0.56 µM; decomposition by 1H NMR [3]: less than 5%
CC(C)=CCC[C@@H](C)CCO[C@H]1O[C@@H]2O[C@@]3(C)CC[C@H]4[C@H](C)CC[C@@H]([C@H]1C)[C@@]24OO3 [Hybrid 9d] | 2.9 ± 0.6 µM | 2.7 ± 0.2 µM | 51 ± 0.3 µM | 17.6 | 18.9 | –
CC(C)=CCC[C@H](C)CCO[C@H]1O[C@@H]2O[C@@]3(C)CC[C@H]4[C@H](C)CC[C@@H]([C@H]1C)[C@@]24OO3 [Hybrid 9e] | 2.4 ± 0.1 µM | 2.2 ± 0.6 µM | 50 ± 0.03 µM | 20.8 | 22.7 | –
CC(C)=CCC/C(C)=C/CO[C@H]1O[C@@H]2O[C@@]3(C)CC[C@H]4[C@H](C)CC[C@@H]([C@H]1C)[C@@]24OO3 [Hybrid 9g] | 14.5 ± 1.1 µM | 13.4 ± 1.5 µM | 6.2 ± 0.7 µM | 0.4 | 0.5 | –
CC(C)=CCCC(C)CCOC(=O)CCC(=O)OC1OC2OC3(C)CCC4C(C)CCC(C1C)C24OO3 (centres unmarked) [Hybrid 10d] | 1.7 ± 0.5 µM | 1.3 ± 0.8 µM | 4.8 ± 0.9 µM | 2.8 | 3.7 | –
CC(C)=CCCC(C)CCOC(=O)CCC(=O)OC1OC2OC3(C)CCC4C(C)CCC(C1C)C24OO3 (centres unmarked) [Hybrid 10e] | – | – | – | 2.7 | 3.2 | IC50 (C3PV): 5.1 ± 1.7 µM; IC50 (WM115): 1.9 ± 0.6 µM; IC50 (WM266 [1]; [5]): 1.6 ± 0.9 µM
CC(C)=CCCC(C)=CCOC(=O)CCC(=O)OC1OC2OC3(C)CCC4C(C)CCC(C1C)C24OO3 (centres unmarked) [Hybrid 10g] | – | – | – | 1.6 | 2.4 | IC50 (C3PV): 2.4 ± 0.9 µM; IC50 (WM115): 1.5 ± 0.7 µM; IC50 (WM266 [1]; [5]): 1 ± 0.1 µM
CC(C)=CCCC(C)CCOC1OC2OC3(C)CCC4C(C)CCC(C1C)C24O3 (centres unmarked) [Hybrid 11c] | – | 35.1 ± 2.5 µM | – | – | – | –
CC(C)=CCCC(C)=CCOC1OC2OC3(C)CCC4C(C)CCC(C1C)C24O3 (centres unmarked) [Hybrid 11f] | – | 76.3 ± 9.5 µM | – | – | – | fold lower antimelanoma effect compared to the corresponding compounds 9c and f (WM266 [1]; WM266, 2-deoxy analogue vs. corresponding DHA hybrid): 40 fold
CC(=O)O[C@H]1C(=O)[C@@]2(C)[C@H]([C@H](OC(=O)c3ccccc3)[C@]3(O)C[C@H](OC(=O)[C@H](O)[C@@H](NC(=O)c4ccccc4)c4ccccc4)C(C)=C1C3(C)C)[C@]1(OC(C)=O)CO[C@@H]1C[C@@H]2O [PTX, paclitaxel, reference compound] | 2.3 ± 0.7 µM | 0.9 ± 0.04 µM | 78.9 ± 0.8 µM | 34.3 | 87.7 | –

Continued, in another order:

IC50 (WM115; Homo sapiens, WM-115, 24 h) | IC50 (WM266 [1]; [4]) | SMILES | IC50 (C3PV; Homo sapiens, C3PV, 24 h) | TSI WM115 (WM115) | TSI WM266 (WM266 [1]) | also measured
1.3 ± 0.9 µM | 0.6 ± 0.02 µM | CC(C)=CCCC(C)CCOC(=O)CCC(=O)OC1OC2OC3(C)CCC4C(C)CCC(C1C)C24OO3 (mixture of isomers) [Hybrid 10c] | 4.4 ± 2.9 µM | 3.4 | 7.3 | –
2.6 ± 0.05 µM | 0.3 ± 0.23 µM | CC(C)=CCCC(C)CCO (racemic) [(±)-citronellol (±)-6, (±)-citronellol, reference compound] | 3 ± 1.2 µM | 1.2 | 10.0 | TSI WM266 (WM266 [1]; listed as citronellol (±)-6): 10
1.5 ± 0.07 µM | 0.6 ± 0.02 µM | CC(C)=CCC[C@@H](C)CCO [(+)-citronellol (+)-6, (+)-citronellol, reference compound] | 1.9 ± 0.8 µM | 1.3 | 3.2 | –
0.9 ± 0.03 µM | 0.5 ± 0.3 µM | CC(C)=CCC[C@H](C)CCO [(-)-citronellol (-)-6, (-)-citronellol, reference compound] | 1 ± 0.9 µM | 1.1 | 2.0 | –
0.5 ± 0.01 µM | 0.5 ± 0.09 µM | CC(C)=CCC/C(C)=C/CO [Geraniol 8, geraniol, reference compound] | 0.5 ± 0.02 µM | 1.0 | 1.0 | –
0.2 ± 0.01 µM | 0.2 ± 0.01 µM | C=C(C)C1CC=C(CO[C@H]2O[C@@H]3O[C@@]4(C)CC[C@H]5[C@H](C)CC[C@@H]([C@H]2C)[C@@]35OO4)CC1 (some centres unmarked) [Hybrid 9b] | 0.3 ± 0.1 µM | 1.5 | 1.5 | –
1.5 ± 0.8 µM | 0.6 ± 0.1 µM | C=CCc1ccc(OC(=O)CCC(=O)OC2OC3OC4(C)CCC5C(C)CCC(C2C)C35OO4)c(OC)c1 (centres unmarked) [Hybrid 10a] | 1.6 ± 0.3 µM | 1.1 | 2.7 | –
1.4 ± 0.03 µM | 0.5 ± 0.01 µM | CC(C)=CCC/C(C)=C\CO [Nerol 7, nerol, reference compound] | 3.8 ± 1.5 µM | 2.7 | 7.6 | –
1.2 ± 0.02 µM | 0.6 ± 0.04 µM | C=C(C)[C@@H]1CC=C(CO)CC1 [Perillyl alcohol 5, perillyl alcohol, reference compound] | 52.5 ± 9.5 µM | 43.8 | 87.5 | –
